Where no end group is shown, it is not given here.
Test system: drug-resistant Mycobacterium tuberculosis
Settings: drug-resistant Mycobacterium tuberculosis growth; peptide 10 micrograms per ml; seven days

Substance: SRNRCNDQ-NH2
- % inhibition: 0.0%

Reference: US20100216724A1, “USE OF F[…] (196-203 ) AS A […] AGENT” (priority 2007, published 2010)
